Test [1] has as its system HBV quasi-species of patient sample N° 21. The test is described as follows: High throughput phenotyping assay: patient sample N° 21. It counts as cell-based, hepatitis B virus. The settings on record: for IC50: Hepatitis B virus, 96 h, sample N° 21, D0 3TC, naïve, INNO LiPA wt, 4 days treatment; for Increase in resistance: sample N° 21, IC50 compared with referent virus. How it is done: (§1) The DNA from 1 ml of serum was extracted using the QIAamp Ultrasens Virus kit (Qiagen), and was taken up in 60 μl of water.
(§2) An amplification of the whole genomes by the method of the invention including the Nar I site was carried out and the amplicons obtained were purified by means of a silica column (Qiagen kit, Qiaquick purification kit).
(§3) The amplicons were then digested with the Nar I enzyme and purified by the same method as above.
(§4) These amplicons were transfected, in a culture format comprising a 25 cm^2 flask seeded the day before at a density of 5.2×10^4 cells/cm^2, with 200 to 400 ng of amplicon/cm^2.
(§5) After 60 hours, the cells were trypsinized and then treated with DNAse. After trypsinization, the cells were taken up in culture medium supplemented 50/50 with the two-times concentrated DNAse buffer (50 mM Tris, 1 mM CaCl2, 5 mM MgCl2, pH 8, 400 μg/ml of DNAse I) containing DNAse I, and incubated for 45 min at 37°. After pelleting, the cells were taken up in culture medium and distributed into 96-well culture plates coated (BioCoat) with collagen at a density of 6×10^4 cells/cm^2 in a volume corresponding to half the final volume used for the treatment with the drugs to be tested. This volume was completed with the 2-times concentration range of the drugs studied (Lamivudine and Adefovir)
(§6) The ranges used were from 100 to 0.01 μM for Lamivudine and from 100 to 6.25 μM for Adefovir. These cultures were treated with these dilutions for 4 days.
(§7) At the end of these 4 days of treatment, the viral DNA was extracted.
(§8) This step was carried out after washing the cells with PBS and adding the extraction buffer, i.e. 50 μl per 30 mm^2 (96-well format) (25 mM Tris, 0.5 mM CaCl2, 2.5 mM MgCl2, pH 8, 0.4 mg/ml DNAse, 0.4 mg/ml RNAse, 1% NP40). The lysis lasted one hour at 37° C. with agitation on a Heidolph Titramax 1000 plate mixer at a rotation rate of about 1050 rpm.
(§9) After this step of lysis and of digestion with DNAse and RNAse, the viral DNA produced during the culturing remains protected in the viral capsids. […]
(§10) This denaturation step was then stopped by adding a neutralizing buffer, 15 μl of 1M Tris at pH 7, and the solution thus obtained was subjected to a dilution before quantification by real time PCR. […]
(§11) The viral DNA extracted was then quantified by means of real time PCR quantification method.
(§12) This HBV production quantification step can be directly carried out after the preceding step, without any need to purify or concentrate the cell lysates to be assayed. […] (quantification step), and a final extension of one minute at 63° C. […]
(§13) For each plate assayed, a standard curve of 10^6 to 10^2 HBV copies/reaction was quantified in parallel. […]

The subject of test [2] is HBV quasi-species of patient sample N° 3. The test is described as follows: High throughput phenotyping assay: patient sample N° 3. The class given is cell-based, hepatitis B virus. The settings on record: for IC50: Hepatitis B virus, 96 h, sample N° 3, D0 3TC, naïve, INNO LiPA wt, 4 days treatment; for Increase in resistance: sample N° 3, IC50 compared with referent virus. As to the method:
as §1, §2, §3, §4, §5, §6, §7, §8, §9, §10, §11, §12, §13

Test [3] has as its system HBV quasi-species of patient sample N° 5. As to the kind of experiment: High throughput phenotyping assay: patient sample N° 5. The class given is cell-based, hepatitis B virus. The note with it: for IC50: Hepatitis B virus, 96 h, sample N° 5, D0 3TC, naïve, INNO LiPA wt, 4 days treatment; for Increase in resistance: sample N° 5, IC50 compared with referent virus. How it is done:
as §1, §2, §3, §4, §5, §6, §7, §8, §9, §10, §11, §12, §13

In test [4] the test system is HBV quasi-species of patient sample N° 19. The test is described as follows: High throughput phenotyping assay: patient sample N° 19. The class given is cell-based, hepatitis B virus. The settings on record: for IC50: Hepatitis B virus, 96 h, sample N° 19, M24 3TC M3 PMEA, INNO LiPA L180M A181V, 4 days treatment; for Increase in resistance: IC50 compared with referent virus. As to the method:
as §1, §2, §3, §4, §5, §6, §7, §8
After this step of lysis and of digestion with DNAse and RNAse, the viral DNA produced during the culturing remains protected in the viral capsids. This DNA was then extracted by denaturation of the viral capsids by means of alkalinization of the extraction buffer by addition of NaOH, i.e. 15 μl of a 0.4M solution per 50 μl of extraction buffer. This denaturation was carried out at 37° C. for 30 min under the same agitation conditions as during the treatment with DNAse, i.e. on a Heidolph Titramax 1000 plate mixer at a rotation rate of about 1050 rpm.
This denaturation step was then stopped by adding a neutralizing buffer, 15 μl of 1M Tris at pH 7, and the solution thus obtained was subjected to a dilution before quantification by real time PCR. The final dilution is ⅕ relative to the initial volume of extraction buffer, i.e. an addition of 170 μl of water in a 96-well format.
as §11
This HBV production quantification step can be directly carried out after the preceding step, without any need to purify or concentrate the cell lysates to be assayed. The real time PCR can be carried out in the same format as the culture format, i.e. a 96-well format on the Biorad MyiQ device, using the real time kit and the consumables suitable for this device, i.e. the iQ™ Sybr® Green Supermix two-times concentrated PCR mix. […] (quantification step), and a final extension of one minute at 63° C. […]
as §13

In test [5] the test system is HBV quasi-species of patient sample N° 17. The test is described as follows: High throughput phenotyping assay: patient sample N° 17. It counts as cell-based, hepatitis B virus. The settings on record: for IC50: Hepatitis B virus, 96 h, sample N° 17, M24 3TC, INNO LiPA L180M ± M204I, 4 days treatment; for Increase in resistance: sample N° 17, IC50 compared with referent virus. How it is done: as §1, §2, §3, §4, §5, §6, §7, §8, §9, §10, §11, §12, §13

For test [6], the system named is reference HBV, genotype D, ayw serotype, wild-type phenotype. As to the kind of experiment: High throughput phenotyping assay, HBV genomic amplicon transfected, viral DNA by real time PCR: referent virus. The class given is cell-based. The note with it: Hepatitis B virus, 96 h, Referent virus (genotype D, ayw, without known mutation), 4 days treatment. How it is done: In addition to the 6 samples analysed, a control was included. This control is a genome of the reference HBV, genotype D, having an ayw serotype and a wild-type phenotype for all the drugs studied. This genome was amplified by the same technique as the samples analysed using a plasmid.
as §2, §3, §4
After 60 hours, the cells were trypsinized and then treated with DNAse. […]
as §10, §11, §12

The subject of test [7] is HBV quasi-species of patient sample N° 7. As to the kind of experiment: High throughput phenotyping assay: patient sample N° 7. It counts as cell-based, hepatitis B virus. The settings on record: for IC50: Hepatitis B virus, 96 h, sample N° 7, M18 3TC, INNO LiPA L80V M204I, 4 days treatment; for Increase in resistance: sample N° 7, IC50 compared with referent virus. As to the method: as §1, §2, §3, §4, §5, §6, §7, §8, §9, §10, §11, §12, §13

Test [8] has as its system HBV. The settings on record: cited from earlier work.

In general, IC50 refers to the concentration that gives 50% inhibition. High values mean weaker potency in that assay, low ones greater potency in that assay. In the case of `Nc1ncnc2c1ncn2CCOCP(=O)(O)O` [Adefovir], the IC50 in test [1] came out at 14.5 µM; in test [2], 9 µM; in test [3], 8 µM; in test [4], 52 µM; in test [5] it was 14 µM; in test [6], 8 µM. The same molecule registered an IC50 in test [7] of 13.5 µM. The Increase in resistance in test [1] turned out to be 1.8; in test [2] it was 1.1; in test [3] it was 1; in test [4] (sample N° 19) it was 6.5; in test [5], 1.75; in test [7], 1.7. For the same molecule, the in vitro phenotype result in test [4] (sample N° 19) is reported as “doubly resistant”.

On to alpha-interferon, for which, in test [8], the “chronic carriers that it is possible to treat” value is listed as “approximately 40%”.

Take `Nc1ccn([C@@H]2CS[C@H](CO)O2)c(=O)n1` [Lamivudine]: the IC50 in test [1] is 0.14 µM; in test [2], 0.7 µM; in test [3], 0.2 µM; in test [4], 40 µM; in test [5], above 100 µM; in test [6], 0.1 µM. The molecule further displayed an IC50 in test [7] above 100 µM. The Increase in resistance in test [1] was 1.4; in test [2], 7; in test [3], 2; in test [4] (sample N° 19), 400; in test [5], above 1000; in test [7] it was above 1000.

Values taken from US20060194217A1, “Method of genotyping and phenotyping hepatitis B viruses resistant to antiviral molecules” (priority 2005, published 2006).
